Results on 30 compounds are retold here after patent publication US11497738B2, “Di-substituted pyrazole compounds for the treatment of diseases” (FGH BIOTECH, INC., priority 2016, dated 2022).

Some results are limits rather than exact numbers.

This experiment has as its system SCD1 expression. Description: Inhibition assay: qPCR of SCD1 expression in HepG2 cells (Biological Example 1). Type of experiment: cell-based. The note with it: Homo sapiens, 24 hours; for inhibition at 1 µM: read-out: Inhibition Percentage (%) 1 μM (SCD1 expression); for inhibition at 10 µM: read-out: Inhibition Percentage (%) 10 μM (SCD1 expression). The method, then:
HepG2 cells were grown in Dulbecco's Modified Eagle Medium (DMEM) containing 5% FBS and antibiotic-antimycotic in a humidified incubator at 37° C. with 5% CO2. All three components were purchased from ThermoFisher Scientific (Catalog numbers are 11995073, 26140079, and 15240062, respectively). Treatments were done in duplicates for each dose of each compound. For control and treated each treatment, 400,000 HepG2 cells were seeded onto 1 well of 24-well plate. After one day in culture, cells were treated with the test compound (1 μM and/or 10 μM, as indicated below in Table 1) for 24 hours in DMEM with 5% FBS. Compounds were diluted using DMSO from 20 mM stocks. Total RNAs were extracted using RNA extraction kit (Cat #: 45001163, Fisher Scientific) or Trizol. If Trizol was used, RNAs were treated with DNase I (cat #: 18068015, ThermoFisher Scientific) before qPCR. RNA concentrations were measured on a Nanodrop. One-step qPCR were performed using SYBR Green One Step qPCR Kit (Cat #: B25002, Biotool). 10 ng RNA was used in each 10-ul reaction. Triplicate reactions were done for each RNA sample. qPCR was performed on an ABI StepOnePlus using the program: Holding stage step 1, 50° C. 3 min, step 2, 95° C. 5 min; Cycling stage (40 cycles) step 1, 95° C. 10 sec, step 2, 60° C. 30 sec. Primer sequence was as follows: SCD1, 5′-[…]-3′/5′-[…]-3′.
All data was measured in HepG2 cells. % inhibition data of SCD1 expression are provided in Table 1. % inhibition at 10 μM is provided as follows: A≥75%; 75%>B≥50%; 50%>C≥10%. % inhibition at 1 μM is provided as follows: A1≥30%; 30%>B1≥2%. NI means no inhibition in the assay at the indicated concentration of compound tested. NT means not tested.
(In general: Real-time PCR tracks product formation cycle by cycle.)

Consider `CCCc1cc(-n2cc(-c3ncc(NS(=O)(=O)CC4CC4)cc3Cl)cn2)ccn1` [Example 29, N-(5-chloro-6-(1-(2-propylpyridin-4-yl)-1H-pyrazol-4-yl)pyridin-3-yl)-1-cyclopropylmethanesulfonamide], for which the inhibition (commonly the percentage by which the read-out fell short of the control) at 1 µM was in the range of 2 to 30% and the inhibition at 10 µM was over 75%.

For the compound `CCCc1cc(-n2nc(C)c(-c3ccc(NCC(C)C)nc3)c2C)ccn1` [Example 34, 5-(3,5-dimethyl-1-(2-propylpyridin-4-yl)-1H-pyrazol-4-yl)-N-isobutylpyridin-2-amine], the inhibition at 1 µM fell in the range of 2 to 30% and the inhibition at 10 µM lay in the range of 50 to 75%.

Turning to `CCCc1cc(-n2cc(-c3ccc(NCC(C)C)cn3)cn2)ccn1` [Example 15, N-isobutyl-6-(1-(2-propylpyridin-4-yl)-1H-pyrazol-4-yl)pyridin-3-amine], the inhibition at 1 µM lay in the range of 2 to 30% and the inhibition at 10 µM was over 75%.

Take `CCCc1cc(-n2cc(-c3ccc(NCC4CC4)cc3Cl)cn2)ccn1` [Example 17, 3-chloro-N-(cyclopropylmethyl)-4-(1-(2-propylpyridin-4-yl)-1H-pyrazol-4-yl)aniline]: the inhibition at 1 µM was at least 30% and the inhibition at 10 µM was over 75%.

Consider `CCCc1cc(-n2cc(-c3ccc(NS(=O)(=O)CC4CC4)cn3)cn2)ccn1` [Example 19, 1-cyclopropyl-N-(6-(1-(2-propylpyridin-4-yl)-1H-pyrazol-4-yl)pyridin-3-yl)methanesulfonamide], for which the inhibition at 1 µM is 2 to 30% and the inhibition at 10 µM is over 75%.

Regarding `CCCc1cc(-n2cc(-c3ccc(NS(C)(=O)=O)cn3)cn2)ccn1` [Example 20, N-(6-(1-(2-propylpyridin-4-yl)-1H-pyrazol-4-yl)pyridin-3-yl)methanesulfonamide], the inhibition at 10 µM was 10 to 50%.

With `CCCc1cc(-n2cc(-c3ccc(NC4CCCC4)nc3)cn2)ccn1` [Example 32, N-cyclopentyl-5-(1-(2-propylpyridin-4-yl)-1H-pyrazol-4-yl)pyridin-2-amine], the inhibition at 10 µM was over 75%.

On to `CCCc1cc(-n2cc(-c3ncc(NS(C)(=O)=O)cc3Cl)cn2)ccn1` [Example 30, N-(5-chloro-6-(1-(2-propylpyridin-4-yl)-1H-pyrazol-4-yl)pyridin-3-yl)methanesulfonamide], for which the inhibition at 10 µM was 50 to 75%.

As to `CCCc1cc(-n2cc(-c3ccc(NC(C)C)cc3Cl)cn2)ccn1` [Example 13, 3-chloro-N-isopropyl-4-(1-(2-propylpyridin-4-yl)-1H-pyrazol-4-yl)aniline], the inhibition at 1 µM was at least 30% and the inhibition at 10 µM is over 75%.

In the case of `CCCc1cc(-n2cc(-c3ccc(NC(C)C)nc3)cn2)ccn1` [Example 7, N-isopropyl-5-(1-(2-propylpyridin-4-yl)-1H-pyrazol-4-yl)pyridin-2-amine], the inhibition at 10 µM was over 75%.

`CCCc1cc(-n2cc(-c3ccc(NC4CCC4)nc3)c(C)n2)ccn1` [Example 57, N-cyclobutyl-5-(3-methyl-1-(2-propylpyridin-4-yl)-1H-pyrazol-4-yl)pyridin-2-amine]: the inhibition at 1 µM was 2 to 30% and the inhibition at 10 µM was over 75%.

In the case of `CCCc1cccc(-n2cc(-c3ccc(NS(C)(=O)=O)cc3)cn2)c1` [Example 47, N-(4-(1-(3-propylphenyl)-1H-pyrazol-4-yl)phenyl)methanesulfonamide], the inhibition at 10 µM is 10 to 50%.

`CCCc1cc(-n2nc(C)c(-c3ccc(NC4CCCC4)nc3)c2C)ccn1` [Example 40, N-cyclopentyl-5-(3,5-dimethyl-1-(2-propylpyridin-4-yl)-1H-pyrazol-4-yl)pyridin-2-amine]: the inhibition at 1 µM is at least 30% and the inhibition at 10 µM lay within 50 to 75%.

In the case of `CCCc1cc(-n2cc(-c3ncc(NC(C)C)cc3Cl)cn2)ccn1` [Example 24, 5-chloro-N-isopropyl-6-(1-(2-propylpyridin-4-yl)-1H-pyrazol-4-yl)pyridin-3-amine], the inhibition at 1 µM was at least 30% and the inhibition at 10 µM is over 75%.

With `CCCc1cc(-n2cc(-c3ccc(NS(=O)(=O)C(F)(F)F)cc3Cl)cn2)ccn1` [Example 11, N-(3-chloro-4-(1-(2-propylpyridin-4-yl)-1H-pyrazol-4-yl)phenyl)-1,1,1-trifluoromethanesulfonamide], the inhibition at 10 µM lay within 10 to 50%.

For the compound `CCCc1cc(-n2cc(-c3ccc(NCC(C)C)cc3)cn2)ccn1` [Example 3, N-isobutyl-4-(1-(2-propylpyridin-4-yl)-1H-pyrazol-4-yl)aniline], the inhibition at 10 µM was over 75%.

Turning to `CCCc1cc(-n2nc(C)c(-c3ccc(NC4CCC4)nc3)c2C)ccn1` [Example 38, N-cyclobutyl-5-(3,5-dimethyl-1-(2-propylpyridin-4-yl)-1H-pyrazol-4-yl)pyridin-2-amine], the inhibition at 1 µM is at least 30% and the inhibition at 10 µM was over 75%.

On to `CCCc1cc(-n2cc(-c3ccc(NC(C)C)nc3)c(C)n2)ccn1` [Example 56, N-isopropyl-5-(3-methyl-1-(2-propylpyridin-4-yl)-1H-pyrazol-4-yl)pyridin-2-amine], for which the inhibition at 1 µM fell in the range of 2 to 30% and the inhibition at 10 µM was over 75%.

For `CCCc1cc(-n2nc(C)c(-c3ccc(NCC4CC4)nc3)c2C)ccn1` [Example 35, N-(cyclopropylmethyl)-5-(3,5-dimethyl-1-(2-propylpyridin-4-yl)-1H-pyrazol-4-yl)pyridin-2-amine], the inhibition at 1 µM fell in the range of 2 to 30% and the inhibition at 10 µM lay in the range of 50 to 75%.

With `CCCn1cc(-n2cc(-c3ccc(NC(C)C)nc3)cn2)ccc1=O` [Example 44, 5-(4-(6-(isopropylamino)pyridin-3-yl)-1H-pyrazol-1-yl)-1-propylpyridin-2(1H)-one], the inhibition at 1 µM is 2 to 30% and the inhibition at 10 µM is over 75%.

On to `CCCc1cc(-n2cc(-c3ncc(NCC4CC4)cc3Cl)cn2)ccn1` [Example 27, 5-chloro-N-(cyclopropylmethyl)-6-(1-(2-propylpyridin-4-yl)-1H-pyrazol-4-yl)pyridin-3-amine], for which the inhibition at 1 µM was at least 30% and the inhibition at 10 µM is over 75%.

As to `CCCc1cc(-n2cc(-c3ccc(NS(=O)(=O)C4CC4)nc3)cn2)ccn1` [Example 5, N-(5-(1-(2-propylpyridin-4-yl)-1H-pyrazol-4-yl)pyridin-2-yl)cyclopropanesulfonamide], the inhibition at 10 µM was 10 to 50%.

Regarding `CCCc1cc(-n2nc(C)c(-c3ccc(NS(=O)(=O)C(F)(F)F)nc3)c2C)ccn1` [Example 39, N-(5-(3,5-dimethyl-1-(2-propylpyridin-4-yl)-1H-pyrazol-4-yl)pyridin-2-yl)-1,1,1-trifluoromethanesulfonamide], the inhibition at 1 µM fell in the range of 2 to 30% and the inhibition at 10 µM lay in the range of 10 to 50%.

For the compound `CCCn1cc(-n2cc(-c3ccc(NS(C)(=O)=O)cc3)cn2)ccc1=O` [Example 45, N-(4-(1-(6-oxo-1-propyl-1,6-dihydropyridin-3-yl)-1H-pyrazol-4-yl)phenyl)methanesulfonamide], the inhibition at 1 µM is at least 30% and the inhibition at 10 µM is over 75%.

As to `CCCc1cc(-n2cc(-c3ccc(NS(=O)(=O)C(C)C)cc3)cn2)ccn1` [Example 4, N-(4-(1-(2-propylpyridin-4-yl)-1H-pyrazol-4-yl)phenyl)propane-2-sulfonamide], the inhibition at 10 µM was over 75%.

`CCCc1cc(-n2cc(-c3ccc(NC4CCCC4)nc3)c(C)n2)ccn1` [Example 55, N-cyclopentyl-5-(3-methyl-1-(2-propylpyridin-4-yl)-1H-pyrazol-4-yl)pyridin-2-amine]: the inhibition at 1 µM is 2 to 30% and the inhibition at 10 µM was over 75%.

`CCCc1cc(-n2cc(-c3ccc(NCC(C)C)nc3)cn2)ccn1` [Example 8, N-isobutyl-5-(1-(2-propylpyridin-4-yl)-1H-pyrazol-4-yl)pyridin-2-amine]: the inhibition at 10 µM was over 75%.

`CCCc1cc(-n2cc(-c3ccc(NS(=O)(=O)CC4CC4)cc3)cn2)ccn1` [Example 2, 1-cyclopropyl-N-(4-(1-(2-propylpyridin-4-yl)-1H-pyrazol-4-yl)phenyl)methanesulfonamide]: the inhibition at 10 µM is over 75%.

With `CCCc1cc(-n2cc(-c3ccc(NCC(C)C)cc3Cl)cn2)ccn1` [Example 14, 3-chloro-N-isobutyl-4-(1-(2-propylpyridin-4-yl)-1H-pyrazol-4-yl)aniline], the inhibition at 1 µM is at least 30% and the inhibition at 10 µM was over 75%.

Take `CCCc1cc(-n2cc(-c3ncc(NCC(C)C)cc3Cl)cn2)ccn1` [Example 26, 5-chloro-N-isobutyl-6-(1-(2-propylpyridin-4-yl)-1H-pyrazol-4-yl)pyridin-3-amine]: the inhibition at 1 µM was at least 30% and the inhibition at 10 µM is over 75%.
